Several values for one entry are separate records, joined by “and”; a condition that tells them apart may be missing. Equal values may be shown once. Read-outs that look alike come from different tables or passages of the source. Marks after values point to notes of the source that are not given here.
How the values were obtained:
hCB1 [1] = biological target: T1, hCB1 (Homo sapiens, UniProt P21554); assay: bioSensAll ebBRET signaling profiling, hCB1; assay type: cell-based; set-up: host or cells: HEK293SL cells, transient PEI transfection; details: for Barr2+GRK2 hCB1 response: Barr2+GRK2 biosensor; for Gi1 hCB1 / GoB hCB1: single replicate values, FigS6a
[2] = Dynamic light scattering, colloidal aggregation; assay type: physicochemical; details: Log[compound, replicates, sheet FigS2b
Description: Samples were prepared as 8-point half-log dilutions in filtered 50 mM KPi buffer, pH 7.0 with final DMSO concentration at 1% (v/v). Colloidal particle formation was measured using DynaPro Plate Reader II (Wyatt Technologies). All compounds were screened in triplicate.

AmpC β-lactamase = AmpC β-lactamase (Escherichia coli, UniProt P00811); assay type: biochemical; details: Log[7019], sheet FigS2d
Description: Enzyme inhibition assays to test for colloidal inhibition were performed at room temperature using CLARIOstar Plate Reader (BMG Labtech). Samples were prepared in 50 mM KPi buffer, pH 7.0 with final DMSO concentration at 1% (v/v). Compounds were incubated with 2 nM AmpC β-lactamase (AmpC) or Malate dehydrogenase (MDH) for 5 min. AmpC reactions were initiated by the addition of 50 μM CENTA chromogenic substrate (219475, Calbiochem). […] MDH reactions were initiated by the addition of 200 μM nicotinamide adenine dinucleotide (NADH) (54839, Sigma Aldrich) and 200 μM oxaloacetic acid (324427, Sigma Aldrich). The change in absorbance was monitored at 340 nm for 60 sec. Initial rates were divided by the DMSO control rate to determine % enzyme activity. […]. Data was analyzed using GraphPad Prism 9.1.

hCB1 [3] = biological target: T1, hCB1; assay: Lance Ultra cAMP accumulation assay, CHO cells; assay type: cell-based; set-up: expressed in transfected cells; details: replicates, sheet FigureS2a;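 note: human CB1R stably expressed in CHO cells, ligands co-incubated with forskolin at room temperature, read-out is lowering of forskolin-stimulated cAMP accumulation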
CB1 (rCB1) [4] = biological target: T2, CB1 (rCB1) (Rattus norvegicus, UniProt P20272); assay: Radioligand competition binding, [3H]-CP-55,940, rat brain membranes
CB1 (rCB1) [5] = biological target: T2, CB1 (rCB1); assay: Single-point radioligand displacement screen; assay type: binding

T1 sequence (P21554 whole entry): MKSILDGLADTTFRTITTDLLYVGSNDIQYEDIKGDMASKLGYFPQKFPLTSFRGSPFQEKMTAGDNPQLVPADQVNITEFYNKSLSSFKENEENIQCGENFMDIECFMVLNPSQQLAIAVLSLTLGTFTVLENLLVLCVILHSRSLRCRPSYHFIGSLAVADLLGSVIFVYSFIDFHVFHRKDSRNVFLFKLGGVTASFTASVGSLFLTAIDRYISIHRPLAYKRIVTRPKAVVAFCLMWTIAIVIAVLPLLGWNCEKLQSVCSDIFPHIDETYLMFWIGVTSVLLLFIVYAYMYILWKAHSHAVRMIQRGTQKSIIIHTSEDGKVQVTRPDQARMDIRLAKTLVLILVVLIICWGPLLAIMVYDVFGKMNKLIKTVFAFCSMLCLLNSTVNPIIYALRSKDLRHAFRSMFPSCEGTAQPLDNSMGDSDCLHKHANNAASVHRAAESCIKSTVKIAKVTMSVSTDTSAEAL
T2 sequence (P20272 whole entry): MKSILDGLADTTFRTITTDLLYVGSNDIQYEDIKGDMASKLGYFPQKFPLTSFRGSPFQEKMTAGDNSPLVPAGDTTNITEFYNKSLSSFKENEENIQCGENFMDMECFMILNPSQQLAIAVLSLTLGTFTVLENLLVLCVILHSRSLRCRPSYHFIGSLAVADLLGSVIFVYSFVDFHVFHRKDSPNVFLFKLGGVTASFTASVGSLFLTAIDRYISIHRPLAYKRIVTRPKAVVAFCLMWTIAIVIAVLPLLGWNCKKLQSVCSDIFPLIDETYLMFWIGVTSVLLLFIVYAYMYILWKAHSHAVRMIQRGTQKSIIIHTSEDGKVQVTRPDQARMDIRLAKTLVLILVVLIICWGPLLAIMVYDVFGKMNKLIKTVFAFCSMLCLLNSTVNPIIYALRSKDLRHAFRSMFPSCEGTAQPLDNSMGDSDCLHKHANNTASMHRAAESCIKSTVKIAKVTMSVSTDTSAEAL
Sequence of AmpC β-lactamase (P00811 20-377): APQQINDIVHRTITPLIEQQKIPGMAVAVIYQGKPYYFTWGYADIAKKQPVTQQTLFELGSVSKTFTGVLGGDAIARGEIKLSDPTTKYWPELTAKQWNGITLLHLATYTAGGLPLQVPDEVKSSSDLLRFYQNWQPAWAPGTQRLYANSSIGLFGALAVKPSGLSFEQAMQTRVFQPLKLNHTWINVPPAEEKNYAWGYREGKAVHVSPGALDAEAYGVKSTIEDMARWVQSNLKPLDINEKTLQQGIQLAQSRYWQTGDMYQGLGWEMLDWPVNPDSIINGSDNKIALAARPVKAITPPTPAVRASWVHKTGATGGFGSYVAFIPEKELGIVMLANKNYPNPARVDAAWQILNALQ

Cc1nc(CC2CC2)oc1-c1nc(Cc2cc3c(cc2Br)OCO3)no1 [‘7019]
Barr2+GRK2 hCB1 response (hCB1 [1]; Log [Compound] (M) -4.22186): 62.2028
Barr2+GRK2 hCB1 response (hCB1 [1]; Log [Compound] (M) -4.63927): 5.727
Barr2+GRK2 hCB1 response (hCB1 [1]; Log [Compound] (M) -5.05788): -5.441
Barr2+GRK2 hCB1 response (hCB1 [1]; Log [Compound] (M) -5.47381): -3.845
Barr2+GRK2 hCB1 response (hCB1 [1]; Log [Compound] (M) -5.89285): 30.2955
Barr2+GRK2 hCB1 response (hCB1 [1]; Log [Compound] (M) -6.31878): 10.513
Barr2+GRK2 hCB1 response (hCB1 [1]; Log [Compound] (M) -6.72585): 12.1083
Barr2+GRK2 hCB1 response (hCB1 [1]; Log [Compound] (M) -7.14267): 9.875
Barr2+GRK2 hCB1 response (hCB1 [1]; Log [Compound] (M) -7.55284): -7.674
Barr2+GRK2 hCB1 response (hCB1 [1]; Log [Compound] (M) -8): 3.174
Barr2+GRK2 hCB1 response (hCB1 [1]; Log [Compound] (M) -8.22186): 10.513
Barr2+GRK2 hCB1 response (hCB1 [1]; Log [Compound] (M) -8.39794): 2.217
Barr2+GRK2 hCB1 response (hCB1 [1]; Log [Compound] (M) -8.68787): -30.0093
Barr2+GRK2 hCB1 response (hCB1 [1]; Log [Compound] (M) -9.15521): -44.3676
Barr2+GRK2 hCB1 response (hCB1 [1]; Log [Compound] (M) -9.61989): -29.3712
Barr2+GRK2 hCB1 response (hCB1 [1]; Log [Compound] (M) -10.0969): -17.8845
Barr2+GRK2 hCB1 response (hCB1 [1]; Log [Compound] (M) -10.5529): -36.0717
Barr2+GRK2 hCB1 response (hCB1 [1]; Log [Compound] (M) -11.0177): -47.2392
Barr2+GRK2 hCB1 response (hCB1 [1]; Log [Compound] (M) -11.4949): -38.6243
Barr2+GRK2 hCB1 response (hCB1 [1]; Log [Compound] (M) -11.9208): -22.6706
Barr2+GRK2 hCB1 response (hCB1 [1]; Log [Compound] (M) -12.3979): -32.5619
Barr2+GRK2 hCB1 response (hCB1 [1]; Log [Compound] (M) -12.8861): -24.5851
Barr2+GRK2 hCB1 response (hCB1 [1]; Log [Compound] (M) -13.3979): -2.25
Gi1 hCB1 (hCB1 [1]; Log [Compound] (M) -4.22186): -7.329
GoB hCB1 (hCB1 [1]; Log [Compound] (M) -4.22186): -13.0099
Gi1 hCB1 (hCB1 [1]; Log [Compound] (M) -4.63927): -8.042
GoB hCB1 (hCB1 [1]; Log [Compound] (M) -4.63927): -13.6002
Gi1 hCB1 (hCB1 [1]; Log [Compound] (M) -5.05788): -10.1639
GoB hCB1 (hCB1 [1]; Log [Compound] (M) -5.05788): -11.5515
Gi1 hCB1 (hCB1 [1]; Log [Compound] (M) -5.47381): -10.5282
GoB hCB1 (hCB1 [1]; Log [Compound] (M) -5.47381): -15.1627
Gi1 hCB1 (hCB1 [1]; Log [Compound] (M) -5.89285): -9.467
GoB hCB1 (hCB1 [1]; Log [Compound] (M) -5.89285): -15.9787
Gi1 hCB1 (hCB1 [1]; Log [Compound] (M) -6.31878): -6.569
GoB hCB1 (hCB1 [1]; Log [Compound] (M) -6.31878): -12.489
Gi1 hCB1 (hCB1 [1]; Log [Compound] (M) -6.72585): -4.716
GoB hCB1 (hCB1 [1]; Log [Compound] (M) -6.72585): -9.694
Gi1 hCB1 (hCB1 [1]; Log [Compound] (M) -7.14267): 3.012
GoB hCB1 (hCB1 [1]; Log [Compound] (M) -7.14267): -8.531
Gi1 hCB1 (hCB1 [1]; Log [Compound] (M) -7.55284): 0.08255
GoB hCB1 (hCB1 [1]; Log [Compound] (M) -7.55284): -6.326
Gi1 hCB1 (hCB1 [1]; Log [Compound] (M) -8): 2.236
GoB hCB1 (hCB1 [1]; Log [Compound] (M) -8): -8.913
Gi1 hCB1 (hCB1 [1]; Log [Compound] (M) -8.22186): 3.4083
GoB hCB1 (hCB1 [1]; Log [Compound] (M) -8.22186): -2.3673
Gi1 hCB1 (hCB1 [1]; Log [Compound] (M) -8.39794): 2.078
GoB hCB1 (hCB1 [1]; Log [Compound] (M) -8.39794): -8.01
Gi1 hCB1 (hCB1 [1]; Log [Compound] (M) -8.68787): 0.1776
GoB hCB1 (hCB1 [1]; Log [Compound] (M) -8.68787): -4.607
Gi1 hCB1 (hCB1 [1]; Log [Compound] (M) -9.15521): -0.1708
GoB hCB1 (hCB1 [1]; Log [Compound] (M) -9.15521): -5.336
Gi1 hCB1 (hCB1 [1]; Log [Compound] (M) -9.61989): 0.4151
GoB hCB1 (hCB1 [1]; Log [Compound] (M) -9.61989): -6.256
Gi1 hCB1 (hCB1 [1]; Log [Compound] (M) -10.0969): -0.8202
GoB hCB1 (hCB1 [1]; Log [Compound] (M) -10.0969): -5.6139
Gi1 hCB1 (hCB1 [1]; Log [Compound] (M) -10.5529): 1.635
GoB hCB1 (hCB1 [1]; Log [Compound] (M) -10.5529): -5.77
Gi1 hCB1 (hCB1 [1]; Log [Compound] (M) -11.0177): 0.2092
GoB hCB1 (hCB1 [1]; Log [Compound] (M) -11.0177): -3.426
Gi1 hCB1 (hCB1 [1]; Log [Compound] (M) -11.4949): -0.7251
GoB hCB1 (hCB1 [1]; Log [Compound] (M) -11.4949): -5.058
Gi1 hCB1 (hCB1 [1]; Log [Compound] (M) -11.9208): -0.5034
GoB hCB1 (hCB1 [1]; Log [Compound] (M) -11.9208): -3.392
Gi1 hCB1 (hCB1 [1]; Log [Compound] (M) -12.3979): 1.698
GoB hCB1 (hCB1 [1]; Log [Compound] (M) -12.3979): -7.2806
Gi1 hCB1 (hCB1 [1]; Log [Compound] (M) -12.8861): 0.8586
GoB hCB1 (hCB1 [1]; Log [Compound] (M) -12.8861): -4.763
Gi1 hCB1 (hCB1 [1]; Log [Compound] (M) -13): 6.94
GoB hCB1 (hCB1 [1]; Log [Compound] (M) -13): -5.215
Gi1 hCB1 (hCB1 [1]; Log [Compound] (M) cell empty): 3.028
GoB hCB1 (hCB1 [1]; Log [Compound] (M) cell empty): -6.482
DLS scattering intensity ([2]; uM] 0): 2130000 and 1970000 and 1380000
DLS scattering intensity ([2]; uM] 1): 1540000 and 2950000 and 1930000
DLS scattering intensity ([2]; uM] 1.49996): 46500000 and 37100000 and 47300000
DLS scattering intensity ([2]; uM] 2): 1480000* and 177000000 and 144000000
DLS scattering intensity ([2]; uM] -0.500011): 1270000 and 1420000 and 400669
DLS scattering intensity ([2]; uM] -1): 2530000 and 1820000 and 2230000
AmpC inhibition (AmpC β-lactamase; uM 0): 0
AmpC inhibition (AmpC β-lactamase; uM 1): 0
AmpC inhibition (AmpC β-lactamase; uM 1.49996): 27.6
AmpC inhibition (AmpC β-lactamase; uM 2): 55.1
AmpC inhibition (AmpC β-lactamase; uM -0.500011): 0
AmpC inhibition (AmpC β-lactamase; uM -1): 0
cAMP assay signal, concentration-response point (hCB1 [3]; compound 0.01 nM): 0.00339 and 0.00303 and 0.003953
cAMP assay signal, concentration-response point (hCB1 [3]; compound 0.1 nM): 0.003311 (2×) and 0.004082
cAMP assay signal, concentration-response point (hCB1 [3]; compound 1 nM): 0.003289 and 0.004926 and 0.003401
cAMP assay signal, concentration-response point (hCB1 [3]; compound 10 nM): 0.003247 and 0.002457 and 0.002907
cAMP assay signal, concentration-response point (hCB1 [3]; compound 100 nM): 0.002793 and 0.0025 and 0.003861
cAMP assay signal, concentration-response point (hCB1 [3]; compound 1000 nM): 0.003175 and 0.003571 and 0.003759
cAMP assay signal, concentration-response point (hCB1 [3]; compound 10000 nM): 0.00431 and 0.005952* and 0.003571
cAMP assay signal, concentration-response point (hCB1 [3]; compound 100000 nM): 0.0007716 and 0.001742 and 0.0006817
radioligand binding remaining, competition curve (Figure2e), replicate values (CB1 (rCB1) [4]; log[drug] -3.643): 14.0395 and 10.3537 and 12.7126
radioligand binding remaining, competition curve (Figure2e), replicate values (CB1 (rCB1) [4]; log[drug] -4.35655): 11.9492 and 13.8721 and 12.5783
radioligand binding remaining, competition curve (Figure2e), replicate values (CB1 (rCB1) [4]; log[drug] -5.07): 46.5819 and 49.8809 and 53.387
radioligand binding remaining, competition curve (Figure2e), replicate values (CB1 (rCB1) [4]; log[drug] -5.783): 89.8305 and 82.4446 and 90.6893
radioligand binding remaining, competition curve (Figure2e), replicate values (CB1 (rCB1) [4]; log[drug] -6.496): 105.085 and 92.9907 and 91.4056
radioligand binding remaining, competition curve (Figure2e), replicate values (CB1 (rCB1) [4]; log[drug] -7.21): 98.1356 and 103.28 and 99.3733
radioligand binding remaining, competition curve (Figure2e), replicate values (CB1 (rCB1) [4]; log[drug] -7.923): 89.0395 and 99.5785 and 100.597
radioligand binding remaining, competition curve (Figure2e), replicate values (CB1 (rCB1) [4]; log[drug] -8.636): 97.4011 and 107.312 and 98.9257
pKi [95% CI] (CB1 (rCB1) [4]; rCB1): 5.39 [5.27 –5.52]
% 1H-CP-55,940 displacement (mean) from single point screen (CB1 (rCB1) [5]; 10 µM, 1 µM or 300 nM by cell colour (not visible)): 69.08%
rep1_displacement (CB1 (rCB1) [5]; Figure 1c source data, replicate 1): 67.1
rep2_displacement (CB1 (rCB1) [5]; Figure 1c source data, replicate 2): 70.3
rep3_displacement (CB1 (rCB1) [5]; Figure 1c source data, replicate 3): 69.9

— paper PMC11882969 (Nature Communications, 2025)
